Test results taken from the NIST ThermoML archive (doi:10.1016/j.tca.2009.04.012).
Numbers after ± are expanded uncertainties.

Key:
[1] = for mass density: 298.15 K, 101.33 kPa; for Normal melting temperature: DTA
[2] = Molar enthalpy of transition or fusion; conditions: Crystal; DSC
[3] = molar heat capacity at constant pressure; conditions: 298.15 K, 101.33 kPa, Small sample (50 mg) DSC

SMILES	mass density ([1]; Crystal) [kg/m3]	Normal melting temperature ([1]; Crystal) [°C]	Molar enthalpy of transition or fusion [2] [kcal/mol]	molar heat capacity at constant pressure ([3]; Crystal) [J/K/mol]	mass density ([1]; Liquid) [kg/m3]	molar heat capacity at constant pressure ([3]; Liquid) [J/K/mol]
CC(=O)c1ccco1 [2-acetylfuran]	1098 ± 5	28.47 ± 0.4	3.71 ± 0.165	140.94 ± 6.6	–	–
CC(=O)c1ccc[nH]1 [2-acetylpyrrole]	–	89.82 ± 0.4	3.37 ± 0.263	132.04 ± 6.5	–	–
CC(=O)c1cccs1 [2-acetylthiophene]	–	–	–	–	1171 ± 5	210.72 ± 10
